# Data reported in US7803930B2, “Antisense modulation of apolipoprotein B-expression” (Isis Pharmaceuticals, Inc., priority 2002, dated 2010).
# In the oligonucleotide strings, read from the 5' end, every base follows the letter of its sugar. An asterisk marks phosphorothioate; unmarked linkages are phosphodiester. Other units and linkages are bracketed, terminal groups are in braces. A string of capitals states the bases alone. e = 2'-O-(2-methoxyethyl) (MOE); [5mC] = 5-methylcytosine; d = 2'-deoxy (DNA)
# Columns and labels:
# [1] = tested on: apolipoprotein B mRNA; assay: High fat fed C57BL/6 mice, 6 week timecourse: target mRNA levels in liver; format: in vivo, mouse; settings: six weeks
# Description: Male C57BL/6 mice (n=8) receiving a high fat diet (60% kcal fat) were evaluated over the course of 6 weeks for the effects of treatment with the antisense oligonucleotide, ISIS 147764. Control animals received saline treatment (50 mg/kg). A subset of animals received a daily oral dose (20 mg/kg) atorvastatin calcium (Lipitor®, Pfizer Inc.). All mice, except atorvastatin-treated animals, were dosed intraperitoneally every three days (twice a week), after fasting overnight, with 5, 25, 50 mg/kg ISIS 147764 (SEQ ID No: 109) or saline (50 mg/kg) for six weeks. Serum cholesterol and lipoproteins were analyzed at 0, 2 and 6 week interim timepoints. At study termination, animals were sacrificed 48 hours after the final injections and evaluated for levels of target mRNA levels in liver, cholesterol, lipoprotein, triglyceride, liver enzyme (AST and ALT) and serum glucose levels as well as body, liver, spleen and fat pad weights.
# Male C57BL/6 mice (n=8) receiving a high fat diet (60% kcal fat) were evaluated over the course of 6 weeks for the effects of ISIS 147764 on mRNA expression. Control animals received saline treatment (50 mg/kg). Mice were dosed intraperitoneally every three days (twice a week), after fasting overnight, with 5, 25, 50 mg/kg ISIS 147764 (SEQ ID No: 109) or saline (50 mg/kg) for six weeks. At study termination, animals were sacrificed 48 hours after the final injections and evaluated for levels of target mRNA levels in liver.
# [2] = tested on: apolipoprotein B mRNA; assay: ApoE knockout mice (Example 28): target mRNA levels in liver; format: in vivo, mouse; settings: high fat diet, six weeks
# From the text: Female ApoE knockout mice ranged in age from 5 to 7 weeks and were placed on a normal diet for 2 weeks before study initiation. ApoE knockout mice were then fed ad libitum a 60% fat diet, with 0.15% added cholesterol to induce dyslipidemia and obesity. Control animals were maintained on a high-fat diet with no added cholesterol. […]
# At study termination and forty eight hours after the final injections, animals were sacrificed and evaluated for target mRNA levels in liver by RT-PCR methods verified by Northern Blot analysis, glucose levels, cholesterol and lipid levels by HPLC separation methods and triglyceride and liver enzyme levels (performed by LabCorp Preclinical Services; San Diego, Calif.).
# Data are normalized to saline controls.
# [3] = Steatosis following long-term treatment (6, 12 and 20 weeks) in high-fat fed mice: histology and liver triglyceride content; format: in vivo, mouse; settings: high fat fed C57Bl/6 mice, 25 mg/kg i.p. twice weekly
# Description: Quantitation of liver triglyceride content is also used to assess steatosis. Tissue triglyceride levels are measured using a Triglyceride GPO Assay (Sigma-Aldrich, St. Louis, Mo.).
# Male C57Bl/6 mice were treated with twice weekly intraperitoneal injections of 25 mg/kg ISIS 147764 (SEQ ID NO: 109) or 25 mg/kg ISIS 141923 (SEQ ID NO: 858) for 6, 12 and 20 weeks. Saline treated animals served as controls. Each treatment group contained 4 animals. Animals were sacrificed at 6, 12 and 20 weeks and liver tissue was procured for histological analysis and measurement of tissue triglyeride content.
# [4] = tested on: apolipoprotein B mRNA; assay: Lean mice, 6 weeks (Example 66): apolipoprotein B mRNA; format: in vivo, mouse
# Description: The accumulation of lipids in liver tissue was also evaluated in lean mice. Male […] mice (Charles River Laboratories (Wilmington, Mass.) at 6 to 7 weeks of age were maintained on a standard rodent diet and were treated twice weekly with intraperitoneal injections of 25 or 50 mg/kg 147764 (SEQ ID NO: 109) or 147483 (SEQ ID NO: 79) for 6 weeks. Saline treated animals served as controls. Each treatment group was comprised of 4 animals. Animals were sacrificed after the 6 week treatment period, at which point liver tissue and serum were collected.
# Apolipoprotein B mRNA levels were measured by real-time PCR as described by other examples herein. The data, shown in Table 51, represent the average of 4 animals and are presented as inhibition relative to saline treated controls.
# [5] = tested on: PTEN; assay: ob/ob mice (Example 50): PTEN levels; format: in vivo, mouse; settings: high fat high cholesterol diet, 50 mg/kg i.p. twice a week, six weeks
# Description: Ob/ob mice receiving a high fat, high cholesterol diet (60% kcal fat supplemented with 0.15% cholesterol) were treated with one of several oligonucleotides to evaluate their effect on apolipoprotein B-related phenotypic endpoints in ob/ob mice. After overnight fasting, mice from each group were dosed intraperitoneally twice a week with 50 mg/kg of ISIS 147483 (SEQ ID NO: 79), or 147764 (SEQ ID NO: 109), or the controls ISIS 116847 (SEQ ID NO: 857), or 141923 (SEQ ID NO: 858), or saline for six weeks. At study termination and forty eight hours after the final injections, animals were sacrificed and evaluated for target mRNA levels in liver, cholesterol and triglyceride levels, liver enzyme levels, serum glucose levels, and PTEN levels.
# [6] = Long-term study in lean Cynomolgous monkeys (Example 64): intact oligonucleotide in liver by capillary gel electrophoresis; format: in vivo, Cynomolgous monkey; settings: for antisense oligonucleotide concentration: liver tissue, one month
# Description: The results from the one month interval of the long term treatment are shown in Table 50 and are normalized to saline-treated animals for mRNA and to untreated baseline values for lipid levels. Total cholesterol, LDL-cholesterol, HDL-cholesterol, LDL particle concentration and triglyceride levels in serum were measured by nuclear magnetic resonance spectroscopy by Liposcience (Raleigh, N.C.). Additionally, the concentration of intact oligonucleotide in liver was measured by capillary gel electrophoresis and is presented as micrograms of oligonucleotide per gram of liver tissue. Each result represents the average of data from 4 animals (2 males and 2 females).
# [7] = tested on: human apolipoprotein B protein (apolipoprotein B-100 and apolipoprotein B-48); assay: Transgenic mice dosing study (Example 52): immunoblot of human apolipoprotein B protein in serum and liver; format: in vivo, human transgene in mouse
# Description: Apolipoprotein B protein in serum was also assessed by immunoblot analysis using an antibody directed to human apolipoprotein B protein (US Biologicals, Swampscott, Mass.).
# [8] = tested on: human apolipoprotein B protein; assay: Apolipoprotein B protein in primary human hepatocytes, immunoblot; format: cell-based; settings: 50, 150 and 300 nM, 24 hours, 48 hours
# Description: Protein samples from 50, 150 and 300 nM doses after 24 hours and 150 and 300 nM doses after 48 hours were subjected to immunoblot analysis as described by other examples herein, using a human apolipoprotein B protein specific antibody purchased from US Biological (Swampscott, Mass.).
substance,measurement,setting,value
"GTCCCTGAAGATGTCAATGC (2'-MOE gapmer, further chemistry not given here) [ISIS 147764]",reduction of target mRNA levels in liver,[1]; 5 mg/kg i.p. every three days,15%
same,reduction of target mRNA levels in liver,[1]; 25 mg/kg i.p. every three days,75%
same,reduction of target mRNA levels in liver,[1]; 50 mg/kg i.p. every three days,88%
same,mRNA Percent Inhibition,[2]; 5 mg/kg i.p. every three days,2%
same,mRNA Percent Inhibition,[2]; 25 mg/kg i.p. every three days,42%
same,mRNA Percent Inhibition,[2]; 50 mg/kg i.p. every three days,70%
same,liver tissue triglyceride content vs saline treated animals,"[3]; 6, 12 and 20 weeks",no significant differences
same,steatosis vs saline control animals (histology),[3]; 12 and 20 weeks,reduced
same,% Inhibition apolipoprotein B mRNA,[4]; 25 mg/kg i.p. twice weekly,48%
same,% Inhibition apolipoprotein B mRNA,[4]; 50 mg/kg i.p. twice weekly,77%
same,inhibition of apolipoprotein B mRNA expression,[4]; 25 or 50 mg/kg i.p. twice weekly,in a dose-dependent manner
147764 (eG*eT*e[5mC]*e[5mC]*e[5mC]*dT*dG*dA*dA*dG*dA*dT*dG*dT*d[5mC]*eA*eA*eT*eG*e[5mC]) [compound 147764],mRNA % control PTEN,[5],115.3 % control
"ISIS 301012: SEQ ID NO: 247, antisense oligonucleotide targeted to human apolipoprotein B (antisense GCCTCAGTCTGCTTCGCACC; chemistry not given here)",antisense oligonucleotide concentration,[6]; intravenous 2 mg/kg,92 µg/g
same,antisense oligonucleotide concentration,[6]; intravenous 4 mg/kg,179 µg/g
same,antisense oligonucleotide concentration,[6]; intravenous 12 mg/kg,550 µg/g
same,antisense oligonucleotide concentration,[6]; subcutaneous 20 mg/kg,855 µg/g
same,accumulation of antisense oligonucleotide in the liver,[6]; one month interval,accumulates in the liver in a dose-dependent manner
same,"expression of human apolipoprotein B, B-100 and B-48 forms, in liver (immunoblot)",[7],reduction
same,"human apolipoprotein B protein in serum, B-100 and B-48 forms (immunoblot)","[7]; 2, 4, 6 and 12 weeks of treatment",lowered
same,apolipoprotein B protein in human hepatocytes (immunoblot),[8],reduced in a dose-dependent manner
